Data from PubChem BioAssay AID2060900 (Molecular Pharmacology Branch, DTP, NCI, 2025).
Blank lines part the entries; values can stand above or below the compound they belong to.

Test system: 521955-158-R2-J5-PDC complex spheroids, viability
Test: Anticancer human tumor 521955-158-R2-J5-PDC patient-derived pancreatic carcinoma cell line growth inhibition [RAS]
Details: for IC50: curve of first compound; for viability, T/C: stronger effect = lower value
Summary of the method: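 Tumour cells grown as complex spheroids with HUVEC endothelial cells and mesenchymal stem cells, treated with RAS pathway inhibitor combinations. Each agent spans half-log steps from near clinical Cmax, or 10 microM where Cmax is unknown.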

[1] = second compound 0.00316 µM, first compound 0.0316 µM
[2] = second compound 0.00316 µM, first compound 0.1 µM
[3] = second compound 0.00316 µM, first compound 0.316 µM
[4] = second compound 0.00316 µM, first compound 1 µM
[5] = second compound 0.00316 µM, first compound 3.16 µM
[6] = second compound 0.00316 µM, first compound 10 µM
[7] = second compound 0.01 µM, first compound 0.0316 µM
[8] = second compound 0.01 µM, first compound 0.1 µM
[9] = second compound 0.01 µM, first compound 0.316 µM
[10] = second compound 0.01 µM, first compound 1 µM
[11] = second compound 0.01 µM, first compound 3.16 µM
[12] = second compound 0.01 µM, first compound 10 µM
[13] = second compound 0.0316 µM, first compound 0.0316 µM
[14] = second compound 0.0316 µM, first compound 0.1 µM
[15] = second compound 0.0316 µM, first compound 0.316 µM
[16] = second compound 0.0316 µM, first compound 1 µM
[17] = second compound 0.0316 µM, first compound 3.16 µM
[18] = second compound 0.0316 µM, first compound 10 µM
[19] = second compound 0.1 µM, first compound 0.0316 µM
[20] = second compound 0.1 µM, first compound 0.1 µM
[21] = second compound 0.1 µM, first compound 0.316 µM
[22] = second compound 0.1 µM, first compound 1 µM
[23] = second compound 0.1 µM, first compound 3.16 µM
[24] = second compound 0.1 µM, first compound 10 µM
[25] = second compound 0.316 µM, first compound 0.0316 µM
[26] = second compound 0.316 µM, first compound 0.1 µM
[27] = second compound 0.316 µM, first compound 0.316 µM
[28] = second compound 0.316 µM, first compound 1 µM
[29] = second compound 0.316 µM, first compound 3.16 µM
[30] = second compound 0.316 µM, first compound 10 µM
[31] = second compound 1 µM, first compound 0.0316 µM
[32] = second compound 1 µM, first compound 0.1 µM
[33] = second compound 1 µM, first compound 0.316 µM
[34] = second compound 1 µM, first compound 1 µM
[35] = second compound 1 µM, first compound 3.16 µM
[36] = second compound 1 µM, first compound 10 µM
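Note: compound exposure lasted seven days before the viability read.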
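Throughout, for viability, T/C: spheroids also contain HUVEC endothelial cells and mesenchymal stem cells as stroma.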

IC50 (second compound 0.00316 µM): 5.89 µM
IC50 (second compound 0.01 µM): 6.18 µM
IC50 (second compound 0.0316 µM): 6.07 µM
IC50 (second compound 0.1 µM): 6.24 µM
IC50 (second compound 0.316 µM): 6.02 µM
IC50 (second compound 1 µM): 6.06 µM
SMILES: CC1(O)CCCC1n1c(=O)c(C(F)F)cc2cnc(NC3CCN(S(C)(=O)=O)CC3)nc21 (stereo not given) + C=CC(=O)N1CCN(c2nc(OCC3CCCN3C)nc3c(F)c(-c4nc(N)cc(C)c4C(F)(F)F)c(Cl)cc23)C(C)C1
viability, T/C [1]: 93.1%
viability, T/C [2]: 83%
viability, T/C [3]: 81%
viability, T/C [4]: 80.9%
viability, T/C [5]: 121%
viability, T/C [6]: 14.4%
viability, T/C [7]: 85.9%
viability, T/C [8]: 98%
viability, T/C [9]: 78.6%
viability, T/C [10]: 102%
viability, T/C [11]: 112%
viability, T/C [12]: 17.2%
viability, T/C [13]: 87.7%
viability, T/C [14]: 121%
viability, T/C [15]: 80.2%
viability, T/C [16]: 96.4%
viability, T/C [17]: 108%
viability, T/C [18]: 12.7%
viability, T/C [19]: 135%
viability, T/C [20]: 85.2%
viability, T/C [21]: 75.2%
viability, T/C [22]: 109%
viability, T/C [23]: 111%
viability, T/C [24]: 13%
viability, T/C [25]: 123%
viability, T/C [26]: 79.3%
viability, T/C [27]: 78.3%
viability, T/C [28]: 89.8%
viability, T/C [29]: 116%
viability, T/C [30]: 12.7%
viability, T/C [31]: 127%
viability, T/C [32]: 89.1%
viability, T/C [33]: 69.5%
viability, T/C [34]: 84%
viability, T/C [35]: 119%
viability, T/C [36]: 13%

IC50 (second compound 0.00316 µM): 1.95 µM
IC50 (second compound 0.01 µM): 2.1 µM
IC50 (second compound 0.0316 µM): 2.11 µM
IC50 (second compound 0.1 µM): 2.09 µM
IC50 (second compound 0.316 µM): 2.14 µM
IC50 (second compound 1 µM): 2.01 µM
SMILES: CCC(CC)c1cc(NC2CCC(N)C2)n2nccc2n1 (stereo not given) + C=CC(=O)N1CCN(c2nc(OCC3CCCN3C)nc3c(F)c(-c4nc(N)cc(C)c4C(F)(F)F)c(Cl)cc23)C(C)C1
viability, T/C [1]: 95.8%
viability, T/C [2]: 118%
viability, T/C [3]: 122%
viability, T/C [4]: 107%
viability, T/C [5]: 7.09%
viability, T/C [6]: 10.1%
viability, T/C [7]: 104%
viability, T/C [8]: 127%
viability, T/C [9]: 126%
viability, T/C [10]: 128%
viability, T/C [11]: 8.44%
viability, T/C [12]: 12.1%
viability, T/C [13]: 99.1%
viability, T/C [14]: 127%
viability, T/C [15]: 122%
viability, T/C [16]: 152%
viability, T/C [17]: 9.15%
viability, T/C [18]: 9.78%
viability, T/C [19]: 139%
viability, T/C [20]: 106%
viability, T/C [21]: 142%
viability, T/C [22]: 120%
viability, T/C [23]: 10.2%
viability, T/C [24]: 9.75%
viability, T/C [25]: 145%
viability, T/C [26]: 105%
viability, T/C [27]: 119%
viability, T/C [28]: 133%
viability, T/C [29]: 11.5%
viability, T/C [30]: 9.87%
viability, T/C [31]: 102%
viability, T/C [32]: 107%
viability, T/C [33]: 125%
viability, T/C [34]: 110%
viability, T/C [35]: 10.1%
viability, T/C [36]: 13%

IC50 (second compound 0.00316 µM): > 1 µM
IC50 (second compound 0.01 µM): > 1 µM
IC50 (second compound 0.0316 µM): > 1 µM
IC50 (second compound 0.1 µM): > 1 µM
IC50 (second compound 0.316 µM): > 1 µM
IC50 (second compound 1 µM): > 1 µM
SMILES: CCN1CCN(Cc2ccc(Nc3ncc(F)c(-c4cc(F)c5nc(C)n(C(C)C)c5c4)n3)nc2)CC1 + C=CC(=O)N1CCN(c2nc(OCC3CCCN3C)nc3c(F)c(-c4nc(N)cc(C)c4C(F)(F)F)c(Cl)cc23)C(C)C1
viability, T/C (second compound 0.00316 µM, first compound 0.00316 µM): 121%
viability, T/C (second compound 0.00316 µM, first compound 0.01 µM): 89.3%
viability, T/C [1]: 85.3%
viability, T/C [2]: 85.2%
viability, T/C [3]: 140%
viability, T/C [4]: 102%
viability, T/C (second compound 0.01 µM, first compound 0.00316 µM): 87.2%
viability, T/C (second compound 0.01 µM, first compound 0.01 µM): 126%
viability, T/C [7]: 76.5%
viability, T/C [8]: 120%
viability, T/C [9]: 104%
viability, T/C [10]: 108%
viability, T/C (second compound 0.0316 µM, first compound 0.00316 µM): 101%
viability, T/C (second compound 0.0316 µM, first compound 0.01 µM): 148%
viability, T/C [13]: 88.9%
viability, T/C [14]: 110%
viability, T/C [15]: 93.6%
viability, T/C [16]: 98.4%
viability, T/C (second compound 0.1 µM, first compound 0.00316 µM): 147%
viability, T/C (second compound 0.1 µM, first compound 0.01 µM): 103%
viability, T/C [19]: 115%
viability, T/C [20]: 110%
viability, T/C [21]: 108%
viability, T/C [22]: 112%
viability, T/C (second compound 0.316 µM, first compound 0.00316 µM): 145%
viability, T/C (second compound 0.316 µM, first compound 0.01 µM): 109%
viability, T/C [25]: 80.9%
viability, T/C [26]: 96.4%
viability, T/C [27]: 107%
viability, T/C [28]: 97.6%
viability, T/C (second compound 1 µM, first compound 0.00316 µM): 120%
viability, T/C (second compound 1 µM, first compound 0.01 µM): 92%
viability, T/C [31]: 81.8%
viability, T/C [32]: 75.6%
viability, T/C [33]: 93.5%
viability, T/C [34]: 100%

IC50 (second compound 0.00316 µM): > 10 µM
IC50 (second compound 0.01 µM): > 10 µM
IC50 (second compound 0.0316 µM): > 10 µM
IC50 (second compound 0.1 µM): > 10 µM
IC50 (second compound 0.316 µM): > 10 µM
IC50 (second compound 1 µM): 6.75 µM
SMILES: C[C@@H](NC(=O)c1ncnc(N)c1Cl)c1ncc(C(=O)Nc2cc(C(F)(F)F)c(Cl)cn2)s1 + C=CC(=O)N1CCN(c2nc(OCC3CCCN3C)nc3c(F)c(-c4nc(N)cc(C)c4C(F)(F)F)c(Cl)cc23)C(C)C1
viability, T/C [1]: 105%
viability, T/C [2]: 90.8%
viability, T/C [3]: 103%
viability, T/C [4]: 103%
viability, T/C [5]: 89.3%
viability, T/C [6]: 56.3%
viability, T/C [7]: 107%
viability, T/C [8]: 134%
viability, T/C [9]: 84.8%
viability, T/C [10]: 130%
viability, T/C [11]: 82.9%
viability, T/C [12]: 60.2%
viability, T/C [13]: 101%
viability, T/C [14]: 138%
viability, T/C [15]: 92.8%
viability, T/C [16]: 129%
viability, T/C [17]: 80.7%
viability, T/C [18]: 53.2%
viability, T/C [19]: 144%
viability, T/C [20]: 132%
viability, T/C [21]: 112%
viability, T/C [22]: 86.5%
viability, T/C [23]: 73.1%
viability, T/C [24]: 54.8%
viability, T/C [25]: 164%
viability, T/C [26]: 179%
viability, T/C [27]: 96%
viability, T/C [28]: 96.2%
viability, T/C [29]: 79.5%
viability, T/C [30]: 57.1%
viability, T/C [31]: 198%
viability, T/C [32]: 93.3%
viability, T/C [33]: 88.5%
viability, T/C [34]: 76.5%
viability, T/C [35]: 74.2%
viability, T/C [36]: 56.6%

IC50 (second compound 0.00316 µM): > 10 µM
IC50 (second compound 0.01 µM): > 10 µM
IC50 (second compound 0.0316 µM): > 10 µM
IC50 (second compound 0.1 µM): > 10 µM
IC50 (second compound 0.316 µM): > 10 µM
IC50 (second compound 1 µM): > 10 µM
SMILES: Cc1nc(N2CCC3(CC2)COC(C)C3N)c(CO)nc1Sc1ccnc(N)c1Cl (stereo not given) + C=CC(=O)N1CCN(c2nc(OCC3CCCN3C)nc3c(F)c(-c4nc(N)cc(C)c4C(F)(F)F)c(Cl)cc23)C(C)C1
viability, T/C [1]: 88.7%
viability, T/C [2]: 77.2%
viability, T/C [3]: 69.8%
viability, T/C [4]: 70.5%
viability, T/C [5]: 60.1%
viability, T/C [6]: 56.8%
viability, T/C [7]: 81.2%
viability, T/C [8]: 79%
viability, T/C [9]: 64.6%
viability, T/C [10]: 64.2%
viability, T/C [11]: 60.3%
viability, T/C [12]: 63.3%
viability, T/C [13]: 73.8%
viability, T/C [14]: 90.9%
viability, T/C [15]: 72.1%
viability, T/C [16]: 71.6%
viability, T/C [17]: 60.7%
viability, T/C [18]: 56.9%
viability, T/C [19]: 101%
viability, T/C [20]: 78.5%
viability, T/C [21]: 70.5%
viability, T/C [22]: 63.2%
viability, T/C [23]: 63%
viability, T/C [24]: 54.1%
viability, T/C [25]: 100%
viability, T/C [26]: 80.3%
viability, T/C [27]: 61%
viability, T/C [28]: 61.3%
viability, T/C [29]: 64.8%
viability, T/C [30]: 56%
viability, T/C [31]: 106%
viability, T/C [32]: 70.1%
viability, T/C [33]: 66.5%
viability, T/C [34]: 62.6%
viability, T/C [35]: 55.3%
viability, T/C [36]: 48.3%
